The record followed here is publication PMC12560751 (RSC Advances, 2025).

Structures are written as SMILES.

Holding throughout (assay type): biochemical
The target of one experiment is T1, hMAO A (Homo sapiens, UniProt P21397).
T1 sequence (P21397 1-527): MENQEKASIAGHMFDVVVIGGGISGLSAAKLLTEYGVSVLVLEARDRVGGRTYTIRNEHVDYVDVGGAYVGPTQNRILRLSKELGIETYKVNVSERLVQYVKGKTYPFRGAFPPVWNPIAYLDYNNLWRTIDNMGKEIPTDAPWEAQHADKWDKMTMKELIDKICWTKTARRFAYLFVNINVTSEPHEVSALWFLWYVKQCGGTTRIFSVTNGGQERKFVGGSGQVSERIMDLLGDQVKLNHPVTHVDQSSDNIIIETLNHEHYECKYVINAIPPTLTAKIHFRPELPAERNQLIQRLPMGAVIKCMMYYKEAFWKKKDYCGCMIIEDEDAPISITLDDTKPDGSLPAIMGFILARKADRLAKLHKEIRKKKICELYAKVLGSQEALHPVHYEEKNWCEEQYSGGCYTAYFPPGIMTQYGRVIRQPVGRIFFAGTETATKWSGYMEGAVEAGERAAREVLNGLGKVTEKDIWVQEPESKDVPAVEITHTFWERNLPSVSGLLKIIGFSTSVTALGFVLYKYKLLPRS
As to the kind of experiment: MAO A inhibition, fluorometric method. The conditions noted are these: for inhibition at 100 µM / inhibition at 1000 µM: read-out: MAO A % inhibition.

In a further experiment the target is T2, recombinant hMAO B (Homo sapiens, UniProt P27338).
T2 sequence (P27338 1-520): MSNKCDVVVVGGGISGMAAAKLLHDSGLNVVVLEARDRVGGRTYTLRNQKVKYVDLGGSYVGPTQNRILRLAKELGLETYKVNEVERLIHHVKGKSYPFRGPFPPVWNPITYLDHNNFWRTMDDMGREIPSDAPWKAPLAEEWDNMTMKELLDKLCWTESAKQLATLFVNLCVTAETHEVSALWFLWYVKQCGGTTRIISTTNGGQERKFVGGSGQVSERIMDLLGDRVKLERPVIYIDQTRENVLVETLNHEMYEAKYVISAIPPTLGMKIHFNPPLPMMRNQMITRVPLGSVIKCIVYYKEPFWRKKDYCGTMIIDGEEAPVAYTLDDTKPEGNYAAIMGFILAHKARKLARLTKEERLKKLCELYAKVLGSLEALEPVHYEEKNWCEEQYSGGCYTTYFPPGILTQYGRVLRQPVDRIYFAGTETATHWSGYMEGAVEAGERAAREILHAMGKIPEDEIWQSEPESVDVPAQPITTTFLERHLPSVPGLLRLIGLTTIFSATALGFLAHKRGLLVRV
In words: MAO B inhibition, fluorometric method. The settings on record: for inhibition at 100 µM / inhibition at 1000 µM: read-out: MAO B % inhibition; for Selectivity and indexes: selective for MAO-B (over MAO A).

For the next experiment, the target named is BChE (Homo sapiens, UniProt P06276). In words: Anticholinesterase activity, modified colorimetric Ellman method. The settings on record: for inhibition at 100 µM / inhibition at 1000 µM: read-out: BChE % inhibition. For orientation: DTNB colorimetry detects thiols as they appear.
The next experiment deals with AChE (Homo sapiens, UniProt P22303). The experiment is described as above. The settings on record: for inhibition at 100 µM / inhibition at 1000 µM: read-out: AChE % inhibition; for Selectivity and indexes: selective for AChE (over BChE).
AChE, sequence (P22303 32-614): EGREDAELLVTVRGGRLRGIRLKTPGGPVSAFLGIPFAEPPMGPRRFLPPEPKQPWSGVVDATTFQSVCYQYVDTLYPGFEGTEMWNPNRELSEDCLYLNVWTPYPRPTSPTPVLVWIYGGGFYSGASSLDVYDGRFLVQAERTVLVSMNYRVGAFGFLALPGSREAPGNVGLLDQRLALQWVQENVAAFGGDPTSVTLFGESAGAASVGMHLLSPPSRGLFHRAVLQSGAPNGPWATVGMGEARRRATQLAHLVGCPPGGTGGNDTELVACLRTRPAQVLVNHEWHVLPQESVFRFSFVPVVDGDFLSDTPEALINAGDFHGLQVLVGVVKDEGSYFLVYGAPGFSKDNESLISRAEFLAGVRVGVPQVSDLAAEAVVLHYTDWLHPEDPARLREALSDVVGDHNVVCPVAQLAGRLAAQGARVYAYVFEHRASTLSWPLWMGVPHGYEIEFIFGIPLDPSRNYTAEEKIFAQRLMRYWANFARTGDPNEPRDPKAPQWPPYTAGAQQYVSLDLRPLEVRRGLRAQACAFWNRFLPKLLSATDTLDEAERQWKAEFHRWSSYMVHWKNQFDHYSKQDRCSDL

BChE, sequence (P06276 29-602, species assumed): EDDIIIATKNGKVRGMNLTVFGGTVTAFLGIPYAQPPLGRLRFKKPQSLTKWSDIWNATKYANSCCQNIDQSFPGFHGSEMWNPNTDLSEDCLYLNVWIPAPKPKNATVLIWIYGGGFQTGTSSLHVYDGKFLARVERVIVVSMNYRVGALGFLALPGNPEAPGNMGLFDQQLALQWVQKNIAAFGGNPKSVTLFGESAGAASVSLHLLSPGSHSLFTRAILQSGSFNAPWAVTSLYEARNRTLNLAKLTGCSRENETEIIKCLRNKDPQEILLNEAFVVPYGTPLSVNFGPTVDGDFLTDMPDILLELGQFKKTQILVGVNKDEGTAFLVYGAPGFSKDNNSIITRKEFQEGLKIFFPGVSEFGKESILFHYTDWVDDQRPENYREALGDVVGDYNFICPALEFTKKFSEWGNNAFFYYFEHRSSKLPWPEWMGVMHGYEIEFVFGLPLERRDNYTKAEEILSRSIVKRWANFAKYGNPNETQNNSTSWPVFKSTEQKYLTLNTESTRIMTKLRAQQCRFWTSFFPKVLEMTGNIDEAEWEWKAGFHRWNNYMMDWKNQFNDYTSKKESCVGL

Regarding `C=CCN1CCN(CC(=O)Nc2ccc(C=CC(=O)c3ccc(OC)c(OC)c3)cc2)CC1` [Compound 4d, 2-(4-Allylpiperazin-1-yl)-N-(4-(3-(3,4-dimethoxyphenyl)-3-oxoprop-1-en-1-yl)phenyl)acetamide], the IC50 (usually the point on the concentration scale where inhibition reaches its midpoint) against hMAO A is more than 100 µM; on recombinant hMAO B (MAO B IC50, tables), more than 1000 µM; at BChE, more than 1000 µM; against AChE, more than 100 µM. The inhibition – broadly, the share of the control response that was lost under treatment – at 100 µM is 41.4 ± 1.96% on hMAO A, 30.1 ± 0.957% on recombinant hMAO B, 20.1 ± 0.964% on BChE and 40 ± 1.02% on AChE. Besides, the inhibition at 1000 µM at hMAO A came out at 55 ± 2.06%; on recombinant hMAO B it was 36.7 ± 1.04%; at BChE it was 40.3 ± 1.21%; at AChE it was 80.7 ± 3.34%. Moreover, the Selectivity and indexes entry at hMAO A (selective for MAO-A (over MAO B)) is “MAO-A/>10”.
As to `COc1ccc(C(=O)C=Cc2ccc(NC(=O)CN3CCN(C)CC3)cc2)cc1OC` [Compound 4a, N-(4-(3-(3,4-Dimethoxyphenyl)-3-oxoprop-1-en-1-yl)phenyl)-2-(4-methylpiperazin-1-yl)acetamide], the IC50 was more than 1000 µM at hMAO A; 0.274 ± 0.012 µM on recombinant hMAO B (MAO B IC50, tables); less than 1 µM at recombinant hMAO B (MAO B IC50, text); more than 1000 µM on BChE; 0.068 ± 0.003 µM at AChE. Moreover, the inhibition at 100 µM was 38.7 ± 1.06% at hMAO A, 80.5 ± 2.24% on recombinant hMAO B, 24.6 ± 0.974% on BChE and 90.3 ± 1.86% at AChE. Besides, the inhibition at 1000 µM was 47.7 ± 2.04% at hMAO A, 84 ± 1.93% at recombinant hMAO B, 42.5 ± 1.85% on BChE and 93.5 ± 3.16% on AChE. In addition, the results for the Selectivity and indexes result on recombinant hMAO B and at AChE were “MAO-B/>1000” and “AChE/>1000”, respectively.
Regarding `COc1ccc(C(=O)C=Cc2ccc(NC(=O)CN3CCN(C=O)CC3)cc2)cc1OC` [Compound 4f, N-(4-(3-(3,4-Dimethoxyphenyl)-3-oxoprop-1-en-1-yl)phenyl)-2-(4-formylpiperazin-1-yl)acetamide], the IC50 is more than 1000 µM at hMAO A; 0.137 ± 0.005 µM at recombinant hMAO B (MAO B IC50, tables); less than 1 µM at recombinant hMAO B (MAO B IC50, text); more than 1000 µM against BChE; 0.048 ± 0.002 µM at AChE. Further, the inhibition at 100 µM on hMAO A amounted to 28.8 ± 0.861%; on recombinant hMAO B, 88.6 ± 1.83%; at BChE, 24.3 ± 0.829%; at AChE it was 94.8 ± 3.96%. Besides, the inhibition at 1000 µM at hMAO A worked out at 40.8 ± 0.955%; on recombinant hMAO B it was 90.7 ± 2.62%; at BChE, 31.7 ± 1.37%; on AChE, 96.8 ± 2.93%. Besides, the inhibition at 10 µM on recombinant hMAO B (read-out: MAO B inhibition) turned out to be 88.6 ± 1.83%. The Selectivity and indexes result is “MAO-B/>1000” at recombinant hMAO B and “AChE/>1000” on AChE.
For the compound `C#CCN1CCN(CC(=O)Nc2ccc(C=CC(=O)c3ccc(OC)c(OC)c3)cc2)CC1` [Compound 4e, N-(4-(3-(3,4-Dimethoxyphenyl)-3-oxoprop-1-en-1-yl)phenyl)-2-(4-(prop-2-yn-1-yl)piperazin-1-yl)acetamide], the 50% inhibitory concentration (IC50) at hMAO A was more than 100 µM; at recombinant hMAO B (MAO B IC50, tables), more than 100 µM; against BChE, more than 1000 µM; against AChE, more than 100 µM. Besides, the inhibition at 100 µM was 44.2 ± 1.87% at hMAO A, 39.3 ± 1.48% on recombinant hMAO B, 21.9 ± 0.835% on BChE and 39.4 ± 1.32% at AChE. The inhibition at 1000 µM on hMAO A was determined as 61.4 ± 1.95%; on recombinant hMAO B, 78.2 ± 2.48%; at BChE, 38 ± 0.964%; at AChE, 67.2 ± 2.11%.
For `COc1ccc(C(=O)C=Cc2ccc(NC(=O)CN3CCN(S(C)(=O)=O)CC3)cc2)cc1OC` [Compound 4m, N-(4-(3-(3,4-Dimethoxyphenyl)-3-oxoprop-1-en-1-yl)phenyl)-2-(4-(methylsulfonyl)piperazin-1-yl)acetamide], the IC50 on hMAO A is more than 1000 µM; on recombinant hMAO B (MAO B IC50, tables) it was more than 100 µM; against BChE, more than 1000 µM; on AChE it was 0.158 ± 0.006 µM. Besides, the inhibition at 100 µM turned out to be 33.6 ± 1.32% at hMAO A, 29 ± 0.826% at recombinant hMAO B, 33.3 ± 1.22% at BChE and 87.6 ± 1.72% at AChE. In addition, the inhibition at 1000 µM on hMAO A amounted to 39.4 ± 1.37%; on recombinant hMAO B, 58 ± 1.63%; on BChE, 37.3 ± 0.961%; at AChE it was 89.4 ± 2.59%. Further, the Selectivity and indexes entry at recombinant hMAO B was “MAO-B/>10”; at AChE it was “AChE/>1000”.
Consider `COc1ccc(C(=O)C=Cc2ccc(NC(=O)CN3CCN(CCN(C)C)CC3)cc2)cc1OC` [Compound 4j, N-(4-(3-(3,4-Dimethoxyphenyl)-3-oxoprop-1-en-1-yl)phenyl)-2-(4-(2-(dimethylamino)ethyl)piperazin-1-yl)acetamide], for which the IC50 on hMAO A was more than 1000 µM; at recombinant hMAO B (MAO B IC50, tables), more than 100 µM; on BChE it was more than 1000 µM; against AChE it was 0.043 ± 0.002 µM. For the same compound, the inhibition at 100 µM on hMAO A came to 32.3 ± 1.14%; on recombinant hMAO B, 40.1 ± 1.06%; on BChE, 28.4 ± 1.16%; on AChE, 92.2 ± 3.48%. Also, the inhibition at 1000 µM on hMAO A is 47.7 ± 1.94%; on recombinant hMAO B, 82.2 ± 3.03%; at BChE, 42.7 ± 2.06%; on AChE, 94 ± 1.94%. Moreover, the results for the Selectivity and indexes result at recombinant hMAO B and at AChE were “MAO-B/>10” and “AChE/>1000”, respectively.
On to `CCN1CCN(CC(=O)Nc2ccc(C=CC(=O)c3ccc(OC)c(OC)c3)cc2)CC1` [Compound 4b, N-(4-(3-(3,4-Dimethoxyphenyl)-3-oxoprop-1-en-1-yl)phenyl)-2-(4-ethylpiperazin-1-yl)acetamide], for which the IC50 against hMAO A was more than 100 µM; at recombinant hMAO B (MAO B IC50, tables), more than 100 µM; against BChE, more than 1000 µM; at AChE it was 0.093 ± 0.003 µM. Also, the inhibition at 100 µM on hMAO A turned out to be 31.2 ± 1.24%; at recombinant hMAO B, 40.1 ± 1.97%; at BChE, 27 ± 0.877%; on AChE, 88.7 ± 2.23%. In addition, the inhibition at 1000 µM on hMAO A was 53.1 ± 2.17%; at recombinant hMAO B, 60.4 ± 2.27%; on BChE, 31.1 ± 1.03%; at AChE, 92.6 ± 2.45%. Besides, on AChE, the Selectivity and indexes entry is listed as “AChE/>1000”.
Consider `COc1ccc(C(=O)C=Cc2ccc(NC(=O)CN3CCN(C4CCCC4)CC3)cc2)cc1OC` [Compound 4l, 2-(4-Cyclopentylpiperazin-1-yl)-N-(4-(3-(3,4-dimethoxyphenyl)-3-oxoprop-1-en-1-yl)phenyl)acetamide], for which the IC50 on hMAO A is more than 1000 µM; on recombinant hMAO B (MAO B IC50, tables) it was more than 1000 µM; at BChE, more than 1000 µM; against AChE, more than 100 µM. Also, the inhibition at 100 µM on hMAO A was 30.4 ± 1.25%; at recombinant hMAO B it was 29.7 ± 0.841%; at BChE, 32.7 ± 1.35%; at AChE it was 40.3 ± 1.82%. Further, the inhibition at 1000 µM was 36.7 ± 0.984% at hMAO A, 46.7 ± 1.15% at recombinant hMAO B, 41 ± 2% on BChE and 76.9 ± 2.36% at AChE.
